Experimental data published in paper PMC10695616, “Rational design peptide inhibitors of Cyclophilin D as a potential treatment for acute pancreatitis” (Medicine, 2023).
Ends that are not written are not given here.

Target: T1, Human recombinant CypD (Homo sapiens, UniProt P30405)
T1 construct: purchased Beyotime (Shanghai, China)
Assay: chymotrypsin coupled prolyl-isomerase inhibitory assay
Assay type: biochemical
Conditions: Suc-AAPF-AMC substrate, peptide 0.001 to 100 μM, 25 °C
Protocol: The method for measuring half-maximal inhibitory concentration (IC50) values of the peptides against CypD was described previously as chymotrypsin coupled prolyl-isomerase assay. Human recombinant CypD was purchased from Beyotime (Shanghai, China). The substrate solution for inhibitory assay was prepared as 100 μM Suc-AAPF-AMC (Chymotrypsin Substrate II, Sigma–Aldrich, Shanghai, China) with varied concentration of selected peptide (varied from 0.001 to 100 μM), 15 μg/mL CypD, and 0.5 M LiCl/2,2,2-trifluoroethanol. Alpha-chymotrypsin from bovine pancreas was purchased from Sigma (Shanghai, China) and dissolved in 0.001 M HCl, the concentration for chymotrypsin was prepared to 5 mg/mL. For inhibitory assay, the 96-well plate was filled with 150 μL of the substrate solution and incubated at 25 °C for 1 hour, followed by adding 40 μL of the chymotrypsin solution. The fluorescent changes under 380 nm was captured every 5 seconds for 300 seconds using Mltrospec 3100. The IC50 value was calculated which indicated the peptide concentration needed for obtaining 50% of […] inhibitory activity.
The binding affinity of selected peptides against CypD was tested using a modified inhibitory assay.[37] […] The selected 5 peptides were preincubated with CypD to validate their capability for blocking CypD activity. […] Compound C-9 was previously reported as a strong binder of CypD,[37] therefore, we adopted compound C-9 as a reference sample to evaluate the binding activity of the designed peptides.

T1 sequence (P30405 30-207): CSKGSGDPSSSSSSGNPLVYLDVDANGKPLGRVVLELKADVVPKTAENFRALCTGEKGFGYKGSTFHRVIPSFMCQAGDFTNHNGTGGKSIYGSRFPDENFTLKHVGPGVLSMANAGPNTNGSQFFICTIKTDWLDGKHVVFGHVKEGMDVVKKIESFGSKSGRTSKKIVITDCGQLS

Row | Substance | IC50 [µM]
1 | WACLQ [WACLQ] | 0.37
2 | WACKQ [WACKQ] | 10.5
3 | WACNQ [WACNQ] | 2.63
4 | WACKN [WACKN] | 2.46
